# Where two headings read alike, the source gives them in different places.
# How the values were obtained:
# [1] = system: L. monocytogenes ATCC 19115 (strain B); format: cell-based, Listeria monocytogenes
# Protocol: (§1) The bacteria were grown in MH broth at 37° C. for these experiments. […] The resulting cultures were diluted 1:1000 and grown until the culture reached ˜300,000 cfu/mL. That culture was then further diluted 1:1000 and used to determine the next round of MIC values.
# [2] = system: all bacterial strains tested; experiment: Antibacterial MIC, summary over the panel; format: cell-based; conditions: read-out: MIC, span over all bacterial strains tested
# Protocol: MIC values were determined against a variety of Gram-positive (strains A-D) and Gram-negative (E-J) bacterial and mycobacterial (K) strains using the double-dilution method, as previously published. Preliminary screening was performed using 500 μM of each compound.
# E. coli MC1061 = experiment: Antibacterial MIC, double-dilution method; format: cell-based; conditions: Escherichia coli, strain G, Gram-negative, read-out: MIC
# Outline: (§2)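 Compounds were first screened at 500 μM each, then MICs were read by serial twofold dilution of the compound against the bacterial strain.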
# E. cloacae ATCC 13047 = experiment: Antibacterial MIC, double-dilution method; format: cell-based; conditions: Enterobacter cloacae, ATCC13047, strain F, Gram-negative, read-out: MIC
# Outline: as §2
# [3] = system: L. monocytogenes ATCC 19115; experiment: Antibacterial MIC, double-dilution method; format: cell-based; conditions: Listeria monocytogenes, ATCC19115, strain B, Gram-positive, read-out: MIC
# Outline: as §2
# M. smegmatis MC2-155 = experiment: Antibacterial MIC, double-dilution method; format: cell-based; conditions: Mycolicibacterium smegmatis, MC2155, strain K, mycobacterial, read-out: MIC
# Outline: as §2
# P. aeruginosa ATCC 27853 = experiment: Antibacterial MIC, double-dilution method; format: cell-based; conditions: Pseudomonas aeruginosa, ATCC27853, strain I, Gram-negative, read-out: MIC
# Outline: as §2
# B. subtilis 168 = experiment: Antibacterial MIC, double-dilution method; format: cell-based; conditions: Bacillus subtilis, strain A, Gram-positive
# Outline: as §2
# S. enterica ATCC 14028 = experiment: Antibacterial MIC, double-dilution method; format: cell-based; conditions: Salmonella enterica, ATCC14028, strain J, Gram-negative, read-out: MIC
# Outline: as §2
# VRE = experiment: Antibacterial MIC, double-dilution method; format: cell-based; conditions: Enterococcus, strain D, Gram-positive, read-out: MIC
# Outline: as §2
# VRE (strain D) = format: cell-based, enterococcus
# Protocol: as §1
# MRSA (strain C) = format: cell-based, Staphylococcus aureus
# Protocol: as §1
# [4] = system: P. aeruginosa ATCC 27853 (strain I); format: cell-based
# Protocol: as §1
# K. pneumoniae ATCC 27736 = experiment: Antibacterial MIC, double-dilution method; format: cell-based; conditions: Klebsiella pneumoniae, ATCC27736, strain H, Gram-negative, read-out: MIC
# Outline: as §2
# MRSA = experiment: Antibacterial MIC, double-dilution method; format: cell-based; conditions: Staphylococcus aureus, strain C, Gram-positive, read-out: MIC
# Outline: as §2
# A. baumannii ATCC 19606 = experiment: Antibacterial MIC, double-dilution method; format: cell-based; conditions: Acinetobacter baumannii, ATCC19606, strain E, Gram-negative, read-out: MIC
# Outline: as §2
# C. albicans ATCC 10231 = experiment: Antifungal MIC, CLSI M27-A3 microbroth dilution; format: cell-based, Candida albicans; conditions: Candida albicans, ATCC10231, C. albicans ATCC 10231, resistant to FLC, ITC, and VOR, read-out: MIC
# Protocol: (§3) In vitro MIC testing was performed according to the CLSI M27-A3 standard microbroth dilution methodology for the susceptibility testing of yeasts with minor modifications.
# C. albicans ATCC 1003 = experiment: Antifungal MIC, CLSI M27-A3 microbroth dilution; format: cell-based, Candida albicans; conditions: Candida albicans, ATCC1003, read-out: MIC
# Protocol: as §3
# C. albicans ATCC 1237 = experiment: Antifungal MIC, CLSI M27-A3 microbroth dilution; format: cell-based, Candida albicans; conditions: Candida albicans, ATCC1237, C. albicans ATCC 1237, resistant to FLC, ITC, and VOR, read-out: MIC
# Protocol: as §3
# C. albicans ATCC 64124 = experiment: Antifungal MIC, CLSI M27-A3 microbroth dilution; format: cell-based, Candida albicans; conditions: Candida albicans, ATCC64124, C. albicans ATCC 64124, resistant to FLC, ITC, and VOR, read-out: MIC
# Protocol: as §3
# C. albicans ATCC 2876 = experiment: Antifungal MIC, CLSI M27-A3 microbroth dilution; format: cell-based, Candida albicans; conditions: Candida albicans, ATCC2876, C. albicans ATCC 2876, susceptible to FLC, ITC, and VOR, read-out: MIC
# Protocol: as §3
# C. albicans ATCC 90819 = experiment: Antifungal MIC, CLSI M27-A3 microbroth dilution; format: cell-based, Candida albicans; conditions: Candida albicans, ATCC90819, C. albicans ATCC 90819, resistant to FLC, ITC, and VOR, read-out: MIC
# Protocol: as §3
# C. albicans ATCC 2310 = experiment: Antifungal MIC, CLSI M27-A3 microbroth dilution; format: cell-based, Candida albicans; conditions: Candida albicans, ATCC2310, C. albicans ATCC 2310, susceptible to FLC, ITC, and VOR, read-out: MIC
# Protocol: as §3
# [5] = after 15 serial passages at sub-inhibitory concentrations
smiles,measurement,setting,value
"NCC[C@H](O)C(=O)N[C@@H]1C[C@H](N)[C@@H](O[C@H]2O[C@H](CN)[C@@H](O)[C@H](O)[C@H]2O)[C@H](O)[C@H]1O[C@H]1O[C@H](CO)[C@@H](O)[C@H](N)[C@H]1O [AMK, amikacin, reference compound]",development of resistance (passages after which resistance developed),[1]; up to 15 passages,15 passages
same,MIC,[2],3.9 to 125 µM
same,MIC,E. coli MC1061; converted from μM,24.5 µg/mL
same,MIC,E. coli MC1061; range 0.5 to 500 μM,31.3 µM
same,MIC,E. cloacae ATCC 13047; converted from μM,48.9 µg/mL
same,MIC,E. cloacae ATCC 13047; range 0.5 to 500 μM,62.5 µM
same,MIC,[3]; range 0.5 to 500 μM,3.9 µM
same,MIC,M. smegmatis MC2-155; converted from μM,12.2 µg/mL
same,MIC,M. smegmatis MC2-155; range 0.5 to 500 μM,15.6 µM
same,MIC,P. aeruginosa ATCC 27853; converted from μM,48.9 µg/mL
same,MIC,P. aeruginosa ATCC 27853; range 0.5 to 500 μM,62.5 µM
same,MIC,B. subtilis 168; converted from μM,3 to 12.2 µg/mL
same,MIC,B. subtilis 168; range 0.5 to 500 μM,3.9 to 15.6 µM
same,MIC,S. enterica ATCC 14028; converted from μM,3 to 6.1 µg/mL
same,MIC,S. enterica ATCC 14028; range 0.5 to 500 μM,3.9 to 7.8 µM
same,MIC,VRE; converted from μM,97.7 µg/mL
same,MIC,VRE; range 0.5 to 500 μM,125 µM
same,development of resistance (passages after which resistance developed),VRE (strain D); up to 15 passages,3 passages
same,development of resistance (passages after which resistance developed),MRSA (strain C); up to 15 passages,12 passages
same,development of resistance (passages after which resistance developed),[4]; up to 15 passages,5 passages
"C/C(=N\NC(=N)N)c1ccc(CCc2ccc(/C(C)=N/NC(=N)N)cc2)cc1.Cl.Cl [Compound 4D, (2E,2′E)-2,2′-((Ethane-1,2-diylbis(4,1-phenylene))bis(ethan-1-yl-1-ylidene))bis(hydrazine-1-carboximidamide) dihydrochloride]",increase in relative MIC values,[1]; [5],8 fold
same,MIC,K. pneumoniae ATCC 27736; converted from μM,> 226 µg/mL
same,MIC,K. pneumoniae ATCC 27736; range 0.5 to 500 μM,> 500 µM
same,MIC,MRSA; converted from μM,0.5 to 0.9 µg/mL
same,MIC,MRSA; range 0.5 to 500 μM,1 to 2 µM
same,MIC,E. coli MC1061; converted from μM,> 226 µg/mL
same,MIC,E. coli MC1061; range 0.5 to 500 μM,> 500 µM
same,MIC,E. cloacae ATCC 13047; converted from μM,> 226 µg/mL
same,MIC,E. cloacae ATCC 13047; range 0.5 to 500 μM,> 500 µM
same,MIC,[3]; converted from μM,0.5 µg/mL
same,MIC,[3]; range 0.5 to 500 μM,1 µM
same,MIC,M. smegmatis MC2-155; converted from μM,0.5 µg/mL
same,MIC,M. smegmatis MC2-155; range 0.5 to 500 μM,1 µM
same,MIC,P. aeruginosa ATCC 27853; converted from μM,> 226 µg/mL
same,MIC,P. aeruginosa ATCC 27853; range 0.5 to 500 μM,> 500 µM
same,MIC,A. baumannii ATCC 19606; converted from μM,> 226 µg/mL
same,MIC,A. baumannii ATCC 19606; range 0.5 to 500 μM,> 500 µM
same,MIC,B. subtilis 168; converted from μM,> 226 µg/mL
same,MIC,B. subtilis 168; range 0.5 to 500 μM,> 500 µM
same,MIC,S. enterica ATCC 14028; converted from μM,> 226 µg/mL
same,MIC,S. enterica ATCC 14028; range 0.5 to 500 μM,> 500 µM
same,MIC,VRE; converted from μM,0.5 µg/mL
same,MIC,VRE; range 0.5 to 500 μM,1 µM
same,increase in relative MIC values,VRE (strain D); [5],16 fold
same,increase in relative MIC values,MRSA (strain C); [5],16 fold
same,increase in relative MIC values,[4]; [5],4 fold
same,MIC,C. albicans ATCC 10231; converted from μg/mL,17.3 µM
same,MIC,C. albicans ATCC 10231,7.8 µg/mL
same,MIC,"C. albicans ATCC 1003; C. albicans ATCC 1003, converted from μg/mL",34.6 µM
same,MIC,C. albicans ATCC 1003,15.6 µg/mL
same,MIC,C. albicans ATCC 1237; converted from μg/mL,34.6 µM
same,MIC,C. albicans ATCC 1237,15.6 µg/mL
same,MIC,C. albicans ATCC 64124; converted from μg/mL,> 69.3 µM
same,MIC,C. albicans ATCC 64124,> 31.3 µg/mL
same,MIC,C. albicans ATCC 2876; converted from μg/mL,8.6 µM
same,MIC,C. albicans ATCC 2876,3.9 µg/mL
same,MIC,C. albicans ATCC 90819; converted from μg/mL,17.3 µM
same,MIC,C. albicans ATCC 90819,7.8 µg/mL
same,MIC,C. albicans ATCC 2310; converted from μg/mL,69.3 µM
same,MIC,C. albicans ATCC 2310,31.3 µg/mL

# From patent US10173968B2, “Bishydrazone-based antifungal agents” (University of Kentucky Research Foundation, priority 2016, dated 2019)
